The values that follow come from patent US8449923B2, “Methods for inhibiting sensory nerves by topically administering strontium-containing compositions to keratinized skin” (Cosmederm Bioscience, Inc., priority 1994, dated 2013).

SMILES strings stand for the structures. Read-outs that look alike come from different tables or passages of the source.

Experiment [1] has as its system skin irritation induced by lactic acid. As to the method: Additional studies of anti-irritant activity using varying concentrations of strontium cations were conducted in order to assess the dose-response behavior of the present formulations. The lactic acid irritation protocol described above was used, in which the anti-irritant cation component was strontium nitrate (31-500 mM).

Experiment [2] concerns skin irritation induced by lactic acid (face). The experiment is described as follows: Lactic acid irritation trial, time zero test (anti-irritant applied simultaneously with irritant). Format: in vivo, human. The conditions noted are these: for Percent Inhibition (average inhibition of cumulative irritation) / Percent Inhibition: time zero tests; for Percent Inhibition (average inhibition of cumulative irritation): cation salt 250 mM, lactic acid irritant; for Percent Inhibition: representative subject panels, vehicle 10% EtOH. As to the method: (§1) The majority of the trials were conducted using lactic acid as the skin irritant, and proceeded generally as follows.
(§2) Tests were conducted in multiple panels of from 7 to 12 subjects each. Subjects were instructed not to wear any makeup or facial lotions to the clinic the day of testing. The subjects were instructed to wash their face with Ivory bar soap in the clinic prior to application of test solutions.
(§3) Lactic acid skin-irritant compositions were formulated in an appropriate vehicle prior to application to the skin of the subjects.
(§4) Test anti-irritant formulations containing measured amounts of strontium salts (concentration 250 mM) were applied either (a) 15 minutes prior to application to the skin of the skin-irritant (“pretreatment test”) or (B) simultaneously with the application of the skin-irritant (“time zero test”). […] Controls were performed by applying corresponding formulation(s) (pretreatment and/or skin-irritant composition) with an equimolar amount of sodium chloride to a contralateral portion of the subject's skin. Typically, the test materials were applied to the face of the subject.
(§5) All test solutions (including controls) were applied in a double blind, randomized fashion using the prepared solutions as previously placed in coded vial designated for use on either the right or left side of the face (or other test area). Solutions were typically applied using a cotton swab (six strokes) or sponge applicator to the face and cheek area extending from the midline of the nose over to the center of the cheek and from the cheek bone down to the jaw line. Application was made first to the right side and then to the left.
(§6) Sensory assessment scores were recorded for each treated side of the subject's skin every minute for 15 minutes or until three consecutive scores of “zero” irritation were obtained. The following scaled scores were used for sensory assessment:
(§7) Symptom scores were cumulated, separately for the cation-treated and control-treated areas, for each individual and also for the panel as a whole. Individuals not reporting a cumulative score of at least “7” on at least one treatment area were excluded (in a blinded fashion) from further analysis in order to ascertain anti-irritant efficacy with respect to the more severely-susceptible test subjects. From a practical standpoint, scores of “0” and “1” on the above scale would be considered highly desirable for a commercial product because such a response would likely not result in a consumer ceasing to use a product. Some consumers, in fact, might view the “barely perceptible” sensations represented by a score of 1 to be an indication that a facial treatment skin care product (especially an exfoliant) was working as advertised. By contrast, irritation scores of “2”, “3” and “4” would likely often result in a consumer never purchasing the product again.

The test system is the same in experiment [3]. The experiment is described as follows: Lactic acid irritation trial, pretreatment test (anti-irritant applied 15 minutes before irritant). Format: in vivo, human. The conditions noted are these: pretreatment tests; for Percent Inhibition (average inhibition of cumulative irritation): cation salt 250 mM, lactic acid irritant; for Percent Inhibition: representative subject panels, 250 mM, vehicle VIS DIFFERENCE
As to the method: as §1, §2, §3, §4, §5, §6, §7

Experiment [4] relates to irritation induced by capsaicin. The conditions noted are these: 250 mM; capsaicin challenge; pretreatment.
Excerpt: The test compounds of the invention were formulated in Elizabeth Arden “Visible Difference Refining Toner”, with the Toner mixed with equimolar sodium chloride serving as the control. The test solutions (and control) were provided in coded vials for application to either the right or left arms. A template (1.5 in.×4.0 in.) was placed on each forearm to mark the challenge area. The pre-treatment solutions containing the anti-irritant cation of the invention were applied to extend 1 inch beyond the marked challenge area in all directions and were allowed to dry for 5 minutes. 0.5 ml of 0.15% capsaicin cream or a swab moistened with capsaicin solution was thereafter applied to each arm by the clinical technician, who rubbed in the cream using gloved fingers. Application and scoring of test and control formulations was performed sequentially for each arm. Scoring was recorded every minute starting at 5 minutes post-application for 10 minutes and then every 5 minutes for 15 minutes (30 minutes total) for the cream, and every minute starting immediately for 15 minutes for the solution. Assessment was made using the irritation scale described above for the lactic acid test, and a simultaneous visual assessment of erythema was made by the monitoring technician.

As to `O=[N+]([O-])[O-].O=[N+]([O-])[O-].[Sr+2]` [Strontium nitrate], the “Percent Inhibition (cumulative irritation)” value in experiment [1] (concentration 31 mM) was 77%; in experiment [1] (concentration 62 mM), 32%; in experiment [1] (concentration 125 mM), 42%; in experiment [1] (concentration 250 mM), 72%; in experiment [1] (concentration 500 mM), 82%. Further, the “overall efficacy in one panel (FIGS. 1-4)” value in experiment [2] (250 mM, time zero test, one panel) is “the overall efficacy of the subject formulation is clear”. Besides, the “Percent Inhibition (average inhibition of cumulative irritation)” value in experiment [2] is on record as 65%; in experiment [3] it was 50%. The “Percent Inhibition” value in experiment [2] (250 mM) was 64%; in experiment [3], 56%. The “overall efficacy in one representative panel (FIGS. 5-8)” value in experiment [4] was “the overall efficacy of the subject formulation is evident”.
In the case of `CC(=O)[O-].CC(=O)[O-].[Sr+2]` [Strontium acetate], in experiment [3], the “Percent Inhibition (average inhibition of cumulative irritation)” value was determined as 46% and the “Percent Inhibition” value stood at 46%.
As for `[Cl-].[Cl-].[Sr+2]` [Strontium chloride], the figures for the “Percent Inhibition (average inhibition of cumulative irritation)” value in experiment [2] and in experiment [3] were 60% and 25%, respectively. Besides, the figures for the “Percent Inhibition” value in experiment [2] (250 mM) and in experiment [3] were 58% and 20%, respectively.
